Assay results reported in article PMC10652874, “Investigation into the mechanism of action of the antimicrobial peptide epilancin 15X” (Frontiers in Microbiology, 2023).

System: S. carnosus TM300
Test: RNAseq differential gene expression
Type: cell-based, Staphylococcus carnosus
Method: For the RNAseq experiments, epilancin was added at sub-lethal concentration (0.5x MIC) to S. carnosus TM300 once the cultures reached an OD600 of 0.6. RNA was extracted 40 min after the treatment, using a FastRNA Pro Blue kit (MP Biomedicals). Both treated and parallel untreated samples were collected at the same time. Sequencing was performed at the Carver Biotechnology Center (UIUC). For RNAseq analysis, gene counts were read in to R (v3.1.1; [Team, 2014]), and 14/2441 genes were removed because they had fewer than 32 total counts across the six samples. edgeR’s (v3.6.7) TMM normalization ([Robinson and Oshlack, 2010]) plus negative binomial generalized log-linear model ([McCarthy et al., 2012]) was used to test for differential expression between treated and untreated groups, while accounting for pairing of U and T replicates from three different cultures. p-values were adjusted using the false discovery rate method ([Benjamini and Hochberg, 1995]).

Epilancin 15X showed a fold_change (gene ileS, isoleucyl-tRNA synthetase) of 0.47, a fold_change (gene kbl, 2-amino-3-ketobutyrate coenzyme A ligase) of 0.46 and a fold_change (gene mnhA, monovalent cation/H+ antiporter subunit A) of 0.48. It also gave a fold_change (gene murC, UDP-N-acetylmuramate--L-alanine ligase) of 0.4, a fold_change (gene ndk, nucleoside diphosphate kinase) of 0.44 and a fold_change (gene nirC, NirC protein) of 0.43. The fold_change (gene nos, nitric oxide synthase oxygenase) was 0.43, the fold_change (gene opuAC, putative glycine betaine ABC transporter substrate-binding protein) was 0.43 and the fold_change (gene pmi, mannose-6-phosphate isomerase) was 0.42. It also gave a fold_change (gene potA, putative spermidine/putrescine import ATP-binding protein PotA) of 0.41, a fold_change (gene prmC (SCA_1620), hypothetical protein) of 0.48 and a fold_change (gene ptsG (glcA), glucose-specific phosphotransferase system enzyme II, factor IIA) of 0.42. The fold_change (gene purA, adenylosuccinate synthetase) was 0.45, the fold_change (gene purB, adenylosuccinate lyase) was 0.41 and the fold_change (gene rex (SCA_1553), redox-sensing transcriptional repressor Rex) was 0.42. For the same substance, the fold_change (gene rimM, 16S rRNA-processing protein RimM) was 0.44, the fold_change (gene rplE, 50S ribosomal protein L5) was 0.47 and the fold_change (gene rplF, 50S ribosomal protein L6) was 0.48. For the same substance, the fold_change (gene rplJ, 50S ribosomal protein L10) was 0.48, the fold_change (gene rplL, 50S ribosomal protein L7/L12) was 0.48 and the fold_change (gene rplR, 50S ribosomal protein L18) was 0.47. The fold_change (gene rplX, 50S ribosomal protein L24) was 0.48, the fold_change (gene rpmD, 50S ribosomal protein L30) was 0.48 and the fold_change (gene rpmG, 50S ribosomal protein L33) was 0.42. The fold_change (gene rpsE, 30S ribosomal protein S5) was 0.48, the fold_change (gene rpsF, 30S ribosomal protein S6) was 0.42 and the fold_change (gene rpsH, 30S ribosomal protein S8) was 0.48. It also gave a fold_change (gene rpsR, 30S ribosomal protein S18) of 0.47, a fold_change (gene rpsT, 30S ribosomal protein S20) of 0.44 and a fold_change (gene sdhB, succinate dehydrogenase iron-sulfur subunit) of 0.41. For the same substance, the fold_change (gene trmD, tRNA (guanine-N(1)-)-methyltransferase) was 0.44, the fold_change (gene trpD, anthranilate phosphoribosyltransferase) was 0.4 and the fold_change (gene trpS, tryptophanyl-tRNA synthetase) was 0.47. For the same substance, the fold_change (gene tyrA, prephenate dehydrogenase) was 0.41, the fold_change dps (general stress protein 20U) was 6.95 and the “fold_change Sca_1447” value (glycosyltransferase) was 3.57. For the same substance, the “fold_change Sca_0051” value (glyoxalase/bleomycin resistance protein/dioxygenase superfamily protein) was 6.15, the “fold_change Sca_0808” value (glyoxalase/bleomycin resistance protein/dioxygenase superfamily protein (fragment 2)) was 2.14 and the “fold_change gloA” value (glyoxylase family protein) was 3.75. The “fold_change grpE” value (heat shock protein GrpE) was 2.94, the “fold_change vraS” value (histidine kinase sensor) was 7.95 and the “fold_change Sca_0031” value (hypothetical protein) was 3.09. For the same substance, the “fold_change Sca_0046” value (hypothetical protein) was 2.17, the “fold_change Sca_0052” value (hypothetical protein) was 5.71 and the “fold_change Sca_0054” value (hypothetical protein) was 2.52. The “fold_change Sca_0067” value (hypothetical protein) was 4.42, the “fold_change Sca_0071” value (hypothetical protein) was 7.07 and the “fold_change Sca_0072” value (hypothetical protein) was 7.15. For the same substance, the “fold_change Sca_0096” value (hypothetical protein) was 3.48, the “fold_change Sca_0097” value (hypothetical protein) was 2.35 and the “fold_change Sca_0098” value (hypothetical protein) was 2.28. The “fold_change Sca_0100” value (hypothetical protein) was 2.47, the “fold_change Sca_0114” value (hypothetical protein) was 3.35 and the “fold_change Sca_0117” value (hypothetical protein) was 2.03. For the same substance, the “fold_change Sca_0128” value (hypothetical protein) was 0.49, the “fold_change Sca_0133” value (hypothetical protein) was 2.43 and the “fold_change Sca_0179” value (hypothetical protein) was 5.25. For the same substance, the “fold_change Sca_0238” value (hypothetical protein) was 5.63, the “fold_change Sca_0248” value (hypothetical protein) was 3.2 and the “fold_change Sca_0264” value (hypothetical protein) was 2.54. For the same substance, the “fold_change Sca_0265” value (hypothetical protein) was 3.04, the “fold_change Sca_0279” value (hypothetical protein) was 2.02 and the “fold_change Sca_0299” value (hypothetical protein) was 4.24. For the same substance, the “fold_change Sca_0324” value (hypothetical protein) was 2.17, the “fold_change Sca_0328” value (hypothetical protein) was 6.61 and the “fold_change Sca_0329” value (hypothetical protein) was 5.2. For the same substance, the “fold_change Sca_0356” value (hypothetical protein) was 4.74, the “fold_change Sca_0422” value (hypothetical protein) was 2.12 and the “fold_change Sca_0454” value (hypothetical protein) was 3.4. For the same substance, the “fold_change Sca_0459” value (hypothetical protein) was 3.3, the “fold_change Sca_0468” value (hypothetical protein) was 2.78 and the “fold_change Sca_0471” value (hypothetical protein) was 4. For the same substance, the “fold_change Sca_0472” value (hypothetical protein) was 3.68, the “fold_change Sca_0473” value (hypothetical protein) was 4.68 and the “fold_change Sca_0474” value (hypothetical protein) was 4.61. For the same substance, the “fold_change Sca_0477” value (hypothetical protein) was 4.52, the “fold_change Sca_0478” value (hypothetical protein) was 3.97 and the “fold_change Sca_0481” value (hypothetical protein) was 4.58. The “fold_change Sca_0482” value (hypothetical protein) was 3.77, the “fold_change Sca_0483” value (hypothetical protein) was 3.93 and the “fold_change Sca_0484” value (hypothetical protein) was 3.96. For the same substance, the “fold_change Sca_0485” value (hypothetical protein) was 3.21, the “fold_change Sca_0487” value (hypothetical protein) was 4.14 and the “fold_change Sca_0488” value (hypothetical protein) was 2.02. For the same substance, the “fold_change Sca_0489” value (hypothetical protein) was 2.6, the “fold_change Sca_0490” value (hypothetical protein) was 2.76 and the “fold_change Sca_0491” value (hypothetical protein) was 2.13. For the same substance, the “fold_change Sca_0525” value (hypothetical protein) was 2.45, the “fold_change Sca_0529” value (hypothetical protein) was 2.16 and the “fold_change Sca_0643” value (hypothetical protein) was 3.47. The “fold_change Sca_0647” value (hypothetical protein) was 2.16, the “fold_change Sca_0648” value (hypothetical protein) was 2.05 and the “fold_change Sca_0666” value (hypothetical protein) was 5.78. The “fold_change Sca_0700” value (hypothetical protein) was 2.96, the “fold_change Sca_0703” value (hypothetical protein) was 5.58 and the “fold_change Sca_0752” value (hypothetical protein) was 2.97. The “fold_change Sca_0778” value (hypothetical protein) was 3.33, the “fold_change Sca_0834” value (hypothetical protein) was 3.67 and the “fold_change Sca_0844” value (hypothetical protein) was 5.22. The “fold_change Sca_0862” value (hypothetical protein) was 2.79, the “fold_change Sca_0868” value (hypothetical protein) was 2.53 and the “fold_change Sca_0877” value (hypothetical protein) was 2.02. The “fold_change Sca_0934” value (hypothetical protein) was 3.62, the “fold_change Sca_0935” value (hypothetical protein) was 2.43 and the “fold_change Sca_0959” value (hypothetical protein) was 2.05. The “fold_change Sca_0965” value (hypothetical protein) was 2.37, the “fold_change Sca_0993” value (hypothetical protein) was 2.38 and the “fold_change Sca_1021” value (hypothetical protein) was 2.3. For the same substance, the “fold_change Sca_1081” value (hypothetical protein) was 2.09, the “fold_change Sca_1154” value (hypothetical protein) was 2.08 and the “fold_change Sca_1155” value (hypothetical protein) was 2.03. The “fold_change Sca_1209” value (hypothetical protein) was 3.24, the “fold_change Sca_1210” value (hypothetical protein) was 2.68 and the “fold_change Sca_1212” value (hypothetical protein) was 2.1. For the same substance, the “fold_change Sca_1236” value (hypothetical protein) was 5.11, the “fold_change Sca_1237” value (hypothetical protein) was 5.24 and the “fold_change Sca_1261” value (hypothetical protein) was 4.39. The “fold_change Sca_1262” value (hypothetical protein) was 4.13, the “fold_change Sca_1263” value (hypothetical protein) was 3.92 and the “fold_change Sca_1265” value (hypothetical protein) was 6.01. For the same substance, the “fold_change Sca_1328” value (hypothetical protein) was 2.71, the “fold_change Sca_1396” value (hypothetical protein) was 2.4 and the “fold_change Sca_1420” value (hypothetical protein) was 2.04. The “fold_change Sca_1461” value (hypothetical protein) was 6.62 and the “fold_change Sca_1500” value (hypothetical protein) was 2.03.
